Laboratory results published in ChEMBL document CHEMBL6127103, “Benzoxaborinine, New Chemotype for Carbonic Anhydrase Inhibition: Ex Novo Synthesis, Crystallography, In Silico Studies, and Anti-Melanoma Cell Line Activity” (J Med Chem, 2024).
pIC50, pKi: −log10 of the molar value. The source made the active and inactive calls. No cut-off for these calls is given here.

Key:
[1] = target: T1, Carbonic anhydrase 12 (Homo sapiens, UniProt O43570); test: Inhibition of human carbonic anhydrase XII catalytic domain assessed as inhibition constant incubated for 15 to 360 mins by stopped-flow CO2 hydration assay
T1 sequence (O43570 whole entry, the tested form may be a part): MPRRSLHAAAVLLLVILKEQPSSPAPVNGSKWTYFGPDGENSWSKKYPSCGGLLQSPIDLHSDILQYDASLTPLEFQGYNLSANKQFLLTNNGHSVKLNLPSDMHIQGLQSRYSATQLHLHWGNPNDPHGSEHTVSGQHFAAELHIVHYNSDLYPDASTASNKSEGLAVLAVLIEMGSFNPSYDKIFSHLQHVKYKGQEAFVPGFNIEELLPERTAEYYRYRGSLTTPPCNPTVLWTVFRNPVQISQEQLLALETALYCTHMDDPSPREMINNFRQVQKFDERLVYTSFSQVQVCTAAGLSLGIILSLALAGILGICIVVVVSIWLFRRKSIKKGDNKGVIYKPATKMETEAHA

[2] = target: T2, Carbonic anhydrase 9 (Homo sapiens, UniProt Q16790); test: Inhibition of human carbonic anhydrase IX catalytic domain assessed as inhibition constant incubated for 15 to 360 mins by stopped-flow CO2 hydration assay
[3] = target: T2, Carbonic anhydrase 9
Description: Inhibition of human carbonic anhydrase IX assessed as inhibition constant incubated for 15 mins by stopped-flow carbon dioxide hydration assay

[4] = target: T3, Carbonic anhydrase 2 (Homo sapiens, UniProt P00918); test: Inhibition of human carbonic anhydrase II assessed as inhibition constant incubated for 15 mins by stopped-flow carbon dioxide hydration assay
[5] = target: T1, Carbonic anhydrase 12; test: Inhibition of human carbonic anhydrase XII assessed as inhibition constant incubated for 15 mins by stopped-flow carbon dioxide hydration assay
[6] = target: T4, Carbonic anhydrase 1 (Homo sapiens, UniProt P00915); test: Inhibition of human carbonic anhydrase I assessed as inhibition constant incubated for 15 mins by stopped-flow carbon dioxide hydration assay
T4 sequence (P00915 whole entry): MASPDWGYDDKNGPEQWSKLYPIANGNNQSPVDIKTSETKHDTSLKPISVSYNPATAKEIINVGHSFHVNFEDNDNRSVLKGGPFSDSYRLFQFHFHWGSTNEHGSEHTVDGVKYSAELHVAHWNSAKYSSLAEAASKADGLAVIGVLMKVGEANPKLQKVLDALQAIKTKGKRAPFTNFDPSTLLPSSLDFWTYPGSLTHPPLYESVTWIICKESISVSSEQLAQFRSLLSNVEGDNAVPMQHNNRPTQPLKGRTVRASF

[7] = test system: SK-MEL-2; test: Anti-melanoma activity against human SK-MEL-2 cells assessed as inhibition of cell proliferation at 200 uM incubated for 72 hrs by MACSQUant analyzer; type: functional, cell-based
[8] = test system: A2058; test: Anti-melanoma activity against human A2058 cells assessed as inhibition of cell proliferation at 200 uM incubated for 72 hrs by MACSQUant analyzer; type: functional, cell-based
[9] = test system: A-375; test: Anti-melanoma activity against human A-375 cells assessed as inhibition of cell proliferation at 200 uM incubated for 72 hrs by MACSQUant analyzer; type: functional, cell-based
[10] = test system: A-375; test: Anti-melanoma activity against human A-375 cells assessed as inhibition of cell proliferation incubated for 72 hrs by MACSQUant analyzer; type: functional, cell-based; conditions: A-375, 72 h
[11] = target: T3, Carbonic anhydrase 2; test: Inhibition of human carbonic anhydrase II assessed as inhibition constant incubated for 15 to 360 mins by stopped-flow CO2 hydration assay
[12] = target: T4, Carbonic anhydrase 1; test: Inhibition of human carbonic anhydrase I assessed as inhibition constant incubated for 15 to 360 mins by stopped-flow CO2 hydration assay
[13] = test system: SK-MEL-2; test: Anti-melanoma activity against human SK-MEL-2 cells assessed as inhibition of cell proliferation at 10 to 300 uM incubated for 72 hrs by MACSQUant analyzer; type: functional, cell-based; conditions: dose 10-300 µM
[14] = test system: A-375; test: Anti-melanoma activity against human A-375 cells assessed as inhibition of cell proliferation at 10 to 300 uM incubated for 72 hrs by MACSQUant analyzer; type: functional, cell-based; conditions: dose 10-300 µM
[15] = test system: A2058; test: Anti-melanoma activity against human A2058 cells assessed as inhibition of cell proliferation at 10 to 300 uM incubated for 72 hrs by MACSQUant analyzer; type: functional, cell-based; conditions: dose 10-300 µM
[16] = test system: A-375; test: Anti-melanoma activity against human A-375 cells assessed as inhibition of cell proliferation at 100 uM incubated for 72 hrs by MACSQUant analyzer; type: functional, cell-based
[17] = test system: A2058; test: Anti-melanoma activity against human A2058 cells assessed as inhibition of cell proliferation at 100 uM incubated for 72 hrs by MACSQUant analyzer; type: functional, cell-based
[18] = test system: SK-MEL-2; test: Anti-melanoma activity against human SK-MEL-2 cells assessed as inhibition of cell proliferation at 100 uM incubated for 72 hrs by MACSQUant analyzer; type: functional, cell-based

| Compound | pKi [1] | pKi [2] | pKi [3] | pKi [4] | pKi [5] | pKi [6] | further results |
| --- | --- | --- | --- | --- | --- | --- | --- |
| NS(=O)(=O)c1ccc(NC(=O)Nc2ccc(F)cc2)cc1 [SLC-0111] |  |  |  |  |  |  | Activity [7]: Active; Activity [8]: Active; Activity [9]: Active; pIC50 [10]: 3.95 |
| Nc1ccc2c(c1)B(O)OCC2 |  |  | 7.35 | 5.54 | 5.64 | < 4.00 |  |
| OB1OCCc2ccccc21 [BENZOXABORIN] |  |  | 5.01 | 5.71 | 6.12 | 5.41 |  |
| OB1OCCc2ccc(NC(=S)NCc3ccccc3)cc21 |  |  | 7.28 | 7.38 | 7.16 | 6.21 | Activity [13]: Active; Activity [14]: Active; Activity [15]: Active; pIC50 [10]: 3.90 |
| OB1OCc2ccccc21 [BENZOXABOROLE] | < 4.30 | < 4.30 |  |  |  |  |  |
| Nc1ccc2c(c1)B(O)OC2 | 6.19 | 6.09 |  |  |  |  |  |
| O=[N+]([O-])c1ccc2c(c1)B(O)OCC2 |  |  | 7.60 | 6.01 | 6.04 | 4.35 |  |
| O=C(NCc1ccccc1)Nc1ccc2c(c1)B(O)OCC2 |  |  | 6.79 | 6.95 | 7.09 | 6.20 | Activity [13]: Active; Activity [14]: Active; Activity [15]: Active; pIC50 [10]: 4.50 |
| OB1OCCc2ccc(NC(=S)Nc3ccccc3)cc21 |  |  | 6.51 | 6.53 | 6.72 | 6.10 |  |
| OB1OCc2ccc(NC(=S)NCc3ccccc3)cc21 | 7.38 | 6.21 |  |  |  |  | pKi [12]: 6.42 |
| O=[N+]([O-])c1ccc2c(c1)B(O)OC2 | 7.04 | 7.03 |  |  |  |  |  |

Now from value to compound, other results behind:

| pKi [1] | pKi [2] | pKi [3] | pKi [4] | pKi [5] | pKi [6] | Compound | further results |
| --- | --- | --- | --- | --- | --- | --- | --- |
| 7.03 | 6.07 |  |  |  |  | O=C(Nc1ccc(C(F)(F)F)cc1)Nc1ccc2c(c1)B(O)OC2 |  |
|  |  | 6.86 | 6.51 | 6.45 | 4.68 | O=C(Nc1ccc(C(F)(F)F)cc1)Nc1ccc2c(c1)B(O)OCC2 |  |
| 6.74 | 6.03 |  |  |  |  | O=C(NCc1ccccc1)Nc1ccc2c(c1)B(O)OC2 |  |
| 7.12 | 6.36 |  |  |  |  | OB1OCc2ccc(NC(=S)Nc3ccccc3)cc21 | pKi [11]: 5.94; pKi [12]: 6.26 |
| 6.76 | 6.07 |  |  |  |  | O=C(Nc1ccc(F)cc1)Nc1ccc2c(c1)B(O)OC2 |  |
|  |  | 7.20 | 6.34 | 7.33 | 6.28 | O=[N+]([O-])c1ccc(NC(=S)Nc2ccc3c(c2)B(O)OCC3)cc1 |  |
| 7.05 | 6.47 |  |  |  |  | OB1OCc2ccc(NC(=S)Nc3ccc(F)cc3)cc21 |  |
| 6.62 | 5.97 |  |  |  |  | O=C(Nc1ccccc1)Nc1ccc2c(c1)B(O)OC2 |  |
|  |  | 6.57 | 6.58 | 6.68 | 4.72 | O=C(Nc1ccccc1)Nc1ccc2c(c1)B(O)OCC2 |  |
|  |  | 7.05 | 6.36 | 6.82 | 5.80 | OB1OCCc2ccc(NC(=S)Nc3ccc(F)cc3)cc21 |  |
|  |  | 6.46 | 7.35 | 7.09 | 4.77 | OB1OCCc2ccc(NC(=S)Nc3ccc(C(F)(F)F)cc3)cc21 |  |
|  |  | 6.35 | 7.07 | 6.56 | 5.46 | O=C(Nc1ccc(F)cc1)Nc1ccc2c(c1)B(O)OCC2 | Activity [16]: Active; Activity [17]: Active; pIC50 [10]: 3.88; Activity [18]: Active |
